Experimental data: patent publication US12404268B2, “2-heteroaryl aminoquinazolinone derivative” (Sumitomo Pharma Co., Ltd., priority 2020, dated 2025)

System: neurons induced to differentiate from SCN1A gene deficient human iPS cells
Assay: Test for measuring hyperexcitation suppression activity (spontaneous calcium oscillation frequency)
Assay type: cell-based
Conditions: Neuron; for IC50: SCN1A gene deficient human iPS cell-derived neurons, FLIPR Calcium 6, FDSS7000EX, read-out: IC50 (50% inhibitory concentration, frequency of spontaneous calcium oscillation); for inhibition at 10 µM / inhibition at 1 µM / inhibition at 0.1 µM / inhibition at 100 µM: Homo sapiens, read-out: inhibition rate
Source text: Test for Measuring Hyperexcitation Suppression Activity Using Neurons Induced to Differentiate from SCN1A Gene Deficient Human iPS Cells
(1) Induction of Differentiation from Human iPS cells to Neurons
Half of the culture solution was exchanged once every 3 to 4 days.
(2) Fluorescent Calcium Probe Treatment, Addition of Compound, and Evaluation of Intracellular Calcium Concentration
Half of the culture solution was removed on day 60 from induction of differentiation or thereafter. A medium for measurement comprising a fluorescent calcium probe (Molecular Device, product name: FLIPR Calcium 6 Assay Bulk Kit, cat #R8191) was added at an amount equal to the remaining medium. The culture was left standing for 30 minutes and subjected to measurement.
The test compounds were serially diluted with a dimethyl sulfoxide (DMSO) solution so that the final concentration would be 0.1 to 100 μM to prepare a concentrate with a concentration that is 6-fold of the final concentration.
The intensity of fluorescence of a calcium probe was measured over time with FDSS7000EX (Hamamatsu Photonics) to evaluate the change in intracellular calcium concentrations. First, the intensity of fluorescence was measured for 2 minutes. The compound solutions were then added using FDSS7000EX for an additional 8 minute measurement of fluorescence intensity. The frequency of spontaneous calcium oscillation was quantified as an indicator of nerve excitation. With the frequency for 2 minutes before the addition of the compound solutions as 100%, the ratio of frequency for the last 2 minutes after addition of the compound solutions was calculated.

SMILES	inhibition at 10 µM	inhibition at 1 µM	other results
CN1C[C@H]2CC[C@@H](C1)[C@@H]2n1c(Nc2cccnc2)nc2ccc(F)cc2c1=O [Example 208]	–	–	IC50: > 100 µM
CN1CC[C@H](n2c(Nc3cccnc3)nc3ccccc3c2=O)C1 [Example 77]	26%	–	–
CN(C)c1ccc2nc(Nc3cccnc3)n(-c3ccccc3)c(=O)c2c1 [Example 212]	–	–	IC50: > 10 µM
O=c1c2cc(F)ccc2nc(Nc2cncc(C(F)(F)F)c2)n1-c1ccccc1 [Example 48]	–	55%	–
O=c1c2cc(Cl)ccc2nc(Nc2nncs2)n1-c1ccccc1 [Example 229]	5%	–	–
O=c1c2cc(F)ccc2nc(Nc2cccnc2)n1C1CCCC1 [Example 60]	100%	–	–
Cc1cccc(-n2c(Nc3cccnc3)nc3ccc(F)cc3c2=O)c1 [Example 106]	–	–	inhibition at 0.1 µM: 17%
O=c1c2ccccc2nc(Nc2cccnc2)n1C1CCC(F)(F)CC1 [Example 58]	100%	–	–
O=c1c2cc(Cl)ccc2nc(Nc2ccc(F)cn2)n1-c1ccccc1 [Example 25]	82%	–	–
O=c1c2ccccc2nc(Nc2ccc3oncc3c2)n1-c1ccccc1 [Example 148]	–	–	inhibition at 100 µM: 10%
O=c1c2ccccc2nc(Nc2ccn3ccnc3c2)n1-c1ccccc1 [Example 70]	–	58%	–
O=c1c2cc(F)ccc2nc(Nc2cccnc2)n1C1COC1 [Example 204]	–	–	IC50: > 10 µM
O=c1c2c(F)cccc2nc(Nc2cncc(F)c2)n1-c1ccccc1 [Example 117]	–	–	inhibition at 100 µM: 71%
O=c1c2cccnc2nc(Nc2cccnc2)n1-c1ccccc1 [Example 152]	15%	–	–
O=c1c2ccccc2nc(Nc2cccc3cncn23)n1-c1ccccc1 [Example 63]	–	23%	–
O=c1c2cc(F)ccc2nc(Nc2cccnc2)n1-c1cccc(F)c1 [Example 123]	–	56%	–
Cc1nn(C)c(C)c1-n1c(Nc2cccnc2)nc2ccc(F)cc2c1=O [Example 154]	98%	–	–
O=c1c2ccccc2nc(Nc2ccc3cncn3c2)n1-c1ccccc1 [Example 68]	100%	–	–
Cc1cc(Nc2nc3ccc(Cl)cc3c(=O)n2-c2ccccc2)ncn1 [Example 46]	–	–	inhibition at 100 µM: 34%
CC(C)c1ccc(Nc2nc3ccc(Cl)cc3c(=O)n2-c2ccccc2)cn1 [Example 44]	81%	–	–
C[C@]1(N)CC[C@@H](n2c(Nc3cccnc3)nc3ccc(F)cc3c2=O)CC1 [Example 89]	–	20%	–
O=c1c2cc(Cl)ccc2nc(Nc2cccnc2)n1-c1ccccc1 [Example 31, 6-chloro-3-phenyl-2-(pyridin-3-ylamino)quinazolin-4(3H)-one]	–	93%	–
O=c1c2cc(F)ccc2nc(Nc2cccnc2)n1C1(c2ccccc2)CCC1 [Example 205]	–	–	IC50: > 10 µM
COc1cncc(Nc2nc3ccc(F)cc3c(=O)n2-c2ccccc2)c1 [Example 28]	–	32%	–

SMILES	inhibition at 10 µM	inhibition at 1 µM	other results
O=c1c2cccc(F)c2nc(Nc2cccnc2)n1-c1ccccc1 [Example 115]	–	81%	–
CN1CCC[C@H](n2c(Nc3cccnc3)nc3ccc(F)cc3c2=O)C1 [Example 81]	35%	–	–
CN1[C@@H]2CC[C@H]1C[C@H](n1c(Nc3cccnc3)nc3ccc(F)cc3c1=O)C2 [Example 85]	59%	–	–
Cc1ccc(Nc2nc3ccc(Cl)cc3c(=O)n2-c2ccccc2)cn1 [Example 8]	–	–	IC50: 1 µM
Cc1cccc(Nc2nc3ccc(F)cc3c(=O)n2-c2ccccc2)n1 [Example 138]	–	70%	–
C[C@@H](c1ccccc1)n1c(Nc2cccnc2)nc2ccc(F)cc2c1=O [Example 163]	–	70%	–
COc1ccc2nc(Nc3cccnc3)n(-c3ccccc3)c(=O)c2c1 [Example 13]	–	–	inhibition at 100 µM: 20%
O=c1c2cc(Cl)ccc2nc(Nc2ncccn2)n1-c1ccccc1 [Example 7]	–	–	IC50: 6.5 µM
O=c1c2cc(F)ccc2nc(Nc2cccnc2)n1-c1cncs1 [Example 160]	58%	–	–
O=c1c2cc(Cl)ccc2nc(Nc2nnco2)n1-c1ccccc1 [Example 228]	–	–	IC50: > 10 µM
C[C@]1(N)CC[C@H](n2c(Nc3cccnc3)nc3ccccc3c2=O)CC1 [Example 73]	–	86%	–
N#Cc1ccc2nc(Nc3cncc(F)c3)n(-c3ccccc3F)c(=O)c2c1 [Example 113, 3-(2-fluorophenyl)-2-((5-fluoropyridin-3-yl)amino)-4-oxo-3,4-dihydroquinazoline-6-carbonitrile]	–	91%	–
O=c1c2cc(Cl)ccc2nc(Nc2ccc(C(F)(F)F)cn2)n1-c1ccccc1 [Example 53]	79%	–	–
O=c1c2cc(Cl)ccc2nc(Nc2ccncn2)n1-c1ccccc1 [Example 146]	11%	–	–
O=c1c2cc(F)ccc2nc(Nc2cccnc2)n1-c1ccccc1F [Example 108, 6-fluoro-3-(2-fluorophenyl)-2-(pyridin-3-ylamino)quinazolin-4(3H)-one]	–	–	inhibition at 0.1 µM: 62%
COc1ccncc1Nc1nc2ccc(Cl)cc2c(=O)n1-c1ccccc1 [Example 23]	–	61%	–
COc1cccc(Nc2nc3ccc(F)cc3c(=O)n2-c2ccccc2)n1 [Example 130]	–	44%	–
COc1cccc2nc(Nc3cccnc3)n(-c3ccccc3)c(=O)c12 [Example 92]	–	–	inhibition at 100 µM: 38%
C[C@]1(N)CC[C@@H](n2c(Nc3cccnc3)nc3ccccc3c2=O)CC1 [Example 74]	100%	–	–
CN1CCC[C@@H](n2c(Nc3cccnc3)nc3ccccc3c2=O)C1 [Example 75]	100%	–	–
O=c1c2cc(Cl)ccc2nc(Nc2ccnnc2)n1-c1ccccc1 [Example 34]	57%	–	–
O=c1c2cc(F)ccc2nc(Nc2ccncc2)n1-c1ccccc1 [Example 131]	100%	–	–
COc1cc(Nc2nc3ccc(F)cc3c(=O)n2-c2ccccc2)ccn1 [Example 227]	–	–	IC50: > 100 µM
Cc1ncccc1Nc1nc2ccc(F)cc2c(=O)n1-c1ccccc1 [Example 29]	82%	–	–

SMILES	inhibition at 10 µM	inhibition at 1 µM	other results
C[C@]1(N)CC[C@H](n2c(Nc3cccnc3)nc3ccc(F)cc3c2=O)CC1 [Example 84]	96%	–	–
Cc1nccc(Nc2nc3ccc(Cl)cc3c(=O)n2-c2ccccc2)n1 [Example 36]	32%	–	–
O=c1c2cc(F)ccc2nc(Nc2cccnc2)n1C12CCN(CC1)CC2 [Example 72]	100%	–	–
O=c1c2cc(F)ccc2nc(Nc2cccnc2)n1C1CCN(C2CC2)CC1 [Example 170]	–	–	inhibition at 100 µM: 100%
COc1cccc(-n2c(Nc3cccnc3)nc3ccc(F)cc3c2=O)c1 [Example 133]	–	51%	–
CO[C@H]1CN(C)CC[C@H]1n1c(Nc2cccnc2)nc2ccc(F)cc2c1=O [Example 183]	–	–	inhibition at 100 µM: 13%
Cn1ncc2ccc(Nc3nc4ccccc4c(=O)n3-c3ccccc3)cc21 [Example 54, 2-((1-methyl-1H-indazol-6-yl)amino)-3-phenylquinazolin-4(3H)-one]	–	95%	–
COc1cncc(Nc2nc3ccc(Cl)cc3c(=O)n2-c2ccccc2)c1 [Example 218]	–	–	IC50: > 10 µM
CN(C)c1cccc(-n2c(Nc3cccnc3)nc3ccc(F)cc3c2=O)c1 [Example 181]	–	73%	–
Cc1ccc(Nc2nc3ccc(F)cc3c(=O)n2-c2ccccc2)cn1 [Example 30]	–	67%	–
O=c1c2ccccc2nc(Nc2cccnc2)n1C12CCN(CC1)CC2 [Example 119]	–	20%	–
O=c1c2ccccc2nc(Nc2ccc3ocnc3c2)n1-c1ccccc1 [Example 1, 2-(benzo[d]oxazol-5-ylamino)-3-phenylquinazolin-4(3H)-one]	–	31%	–
COc1ccc(Nc2nc3ccc(Cl)cc3c(=O)n2-c2ccccc2)cn1 [Example 22]	70%	–	–
O=c1c2cc(Cl)ccc2nc(Nc2cnccc2C(F)(F)F)n1-c1ccccc1 [Example 11]	–	–	IC50: 5.8 µM
N#Cc1cncc(Nc2nc3ccc(Cl)cc3c(=O)n2-c2ccccc2)c1 [Example 41, 5-((6-chloro-4-oxo-3-phenyl-3,4-dihydroquinazolin-2-yl)amino)nicotinonitrile]	–	95%	–
Cc1ccccc1-n1c(Nc2cccnc2)nc2c(F)cccc2c1=O [Example 122]	–	61%	–
O=c1c2cc(F)ccc2nc(Nc2cccnn2)n1-c1ccccc1 [Example 18]	–	–	IC50: 0.8 µM
O=c1c2cc(F)ccc2nc(Nc2cccnc2)n1-c1cccnc1 [Example 35, 6-fluoro-3-(pyridin-3-yl)-2-(pyridin-3-ylamino)quinazolin-4(3H)-one]	–	88%	–
O=c1c2cc(F)ccc2nc(Nc2ccsc2)n1-c1ccccc1 [Example 169]	100%	–	–
O=c1c2cc(F)ccc2nc(Nc2ncccc2F)n1-c1ccccc1 [Example 126]	80%	–	–
O=c1c2ccccc2nc(Nc2cccc3ocnc23)n1-c1ccccc1 [Example 99]	94%	–	–
Cc1ccccc1-n1c(Nc2cccnc2)nc2cc(F)ccc2c1=O [Example 121]	–	28%	–
Cc1ccccc1-n1c(Nc2cncc(F)c2)nc2ccc(F)cc2c1=O [Example 4, 6-fluoro-2-((5-fluoropyridin-3-yl)amino)-3-(o-tolyl)quinazolin-4(3H)-one]	–	–	inhibition at 0.1 µM: 88%
